From US8247612B2, “Organic sulfur compound and its use for controlling harmful arthropod” (Sumitomo Chemical Company, Limited, priority 2007, dated 2012)

Key:
Assay type in all cases: in vivo
[1] = tested on: Culex pipiens pallens; assay: Test Example 4: larvae in treated water, death rate of Culex pipiens pallens; details: 24 h, active ingredient concentration 3.5 ppm in water, 20 last-instar larvae, after one day
Description: Preparations of the present compounds (1), (2), (3), (4), (5), (6), (9), (10), (11), (12), (14), (15), (16), (17), (19), (20), (22), (23), (24), (26), (27), (28), (29), (30) and (31) obtained according to Formulation Example 36 were diluted so that the active ingredient concentration was 500 ppm to obtain test solutions. To 100 mL of ion-exchanged water, 0.7 ml of the test solution was added (active ingredient concentration: 3.5 ppm). Into the solution, 20 last-instar larvae of Culex pipiens pallens were released. After one day, the number of surviving Culex pipiens pallens was examined and the death rate of the pest was calculated. As a result, in treatments with the present compounds (1), (2), (3), (4), (5), (6), (9), (10), (11), (12), (14), (15), (16), (17), (19), (20), (22), (23), (24), (26), (27), (28), (29), (30) and (31), the death rate of the pest was 90% or more.

[2] = tested on: Blattalla germanica; assay: Test Example 3: treated filter paper with sucrose bait, death rate of Blattalla germanica; details: 144 h; 500 ppm test solution, 0.7 ml on filter paper; 2 male imagoes; after 6 days
Description: (§1) Preparations of the present compounds (2), (3), (5), (6), (10), (11), (12), (14), (15), (16), (17), (19), (20), (24), (25), (26), (29), (30) and (31) obtained according to Formulation Example 36 were diluted so that the active ingredient concentration was 500 ppm to obtain test solutions.
(§2) A filter paper having a diameter of 5.5 cm was spread on the bottom of a polyethylene cup having a diameter of 5.5 cm and 0.7 ml of the test solution was added dropwise onto the filter paper. As a bait 30 mg of sucrose was uniformly placed on the filter paper. Into the polyethylene cup, 2 male imagoes of Blattalla germanica were released and the cup was sealed with a lid. After 6 days, the number of surviving Blattalla germanica was examined and the death rate of the pest was calculated.
As a result, in treatments with the present compounds (2), (3), (5), (6), (10), (11), (12), (14), (15), (16), (17), (19), (20), (24), (25), (26), (29), (30) and (31), the death rate of the pest was 100%.

[3] = tested on: Musca domestica; assay: Test Example 2: treated filter paper with sucrose bait, death rate of Musca domestica; details: 500 ppm test solution, 0.7 ml on filter paper, 10 female imagoes, after 24 hours
Description: as §1, with “(6), (9),” for “(6),”, “(12), (13),” for “(12),”, “(26), (28),” for “(26),”
as §2, with “10 female” for “2 male”, “Musca domestica” for “Blattalla germanica”, “24 hours,” for “6 days,”
As a result, in treatments with the present compounds (2), (3), (5), (6), (9), (10), (11), (12), (13), (14), (15), (16), (17), (19), (20), (24), (25), (26), (28), (29), (30) and (31), the death rate of the pest was 70% or more.

[4] = tested on: Haemaphysalis longicornis; assay: Test Example 5: treated filter paper pouch, death rate of ticks; details: filter paper treated with 100 mg/m^2; non-blood-sucking nymphal ticks, 10 ticks/group; after 2 days
Description: Five milligrams of any one of the present compounds (3), (10), (14), (15), (16) and (17) was dissolved in 10 mL of acetone. One milliliter of the acetone solution was uniformly applied on one side of a filter paper (TOYO No. 2; 5×10 cm), so that the filter paper was treated with 100 mg/m^2 of the present compound. After drying, the filter paper was folded in two and its edges were clipped to make a pouch. Non-blood-sucking nymphal ticks (Haemaphysalis longicornis, 10 ticks/group) were put into the pouch, and the pouch was sealed with clips. After 2 days, the number of surviving ticks was examined and the death rate was calculated. As a result, in treatments with the present compounds (3), (10), (14), (15), (16) and (17), the death rate of the tick was 90%.

Structure (SMILES)	pest or weed control at 3.5 ppm [1]	pest or weed control at 500 ppm [2]	pest or weed control at 500 ppm [3]	death rate of the tick [4]
COC(=O)C(CCC(C)C(F)(F)F)S(=O)(=O)CCC(F)(F)F (stereo not shown) [present compound (1), methyl 6,6,6-trifluoro-5-methyl-2-(3,3,3-trifluoropropylsulfonyl)hexanoate]	≥ 90%			
COC(=O)C(Cl)(CCC(C)C(F)(F)F)S(=O)(=O)CCC(F)(F)F (stereo not shown) [present compound (2), methyl 2-chloro-6,6,6-trifluoro-5-methyl-2-(3,3,3-trifluoropropylsulfonyl)hexanoate]	≥ 90%	100%	≥ 70%	
CC(CCC(Cl)(C(N)=O)S(=O)(=O)CCC(F)(F)F)C(F)(F)F (stereo not shown) [present compound (3), 2-chloro-6,6,6-trifluoro-5-methyl-2-(3,3,3-trifluoropropylsulfonyl)hexanamide]	≥ 90%	100%	≥ 70%	90%
CCC(CCC(C(=O)OC)S(=O)(=O)CCC(F)(F)F)C(F)(F)F (stereo not shown) [present compound (4), methyl 5-trifluoromethyl-2-(3,3,3-trifluoropropylsulfonyl)heptanoate]	≥ 90%			
CCC(CCC(Cl)(C(=O)OC)S(=O)(=O)CCC(F)(F)F)C(F)(F)F (stereo not shown) [present compound (5), methyl 2-chloro-5-trifluoromethyl-2-(3,3,3-trifluoropropylsulfonyl)heptanoate]	≥ 90%	100%	≥ 70%	
CCC(CCC(Cl)(C(N)=O)S(=O)(=O)CCC(F)(F)F)C(F)(F)F (stereo not shown) [present compound (6), 2-chloro-5-trifluoromethyl-2-(3,3,3-trifluoropropylsulfonyl)heptanamide]	≥ 90%	100%	≥ 70%	
CC(C)(C)C(CCC(Cl)(C(N)=O)S(=O)(=O)CCC(F)(F)F)C(F)(F)F (stereo not shown) [present compound (9), 2-chloro-6,6-dimethyl-5-trifluoromethyl-2-(3,3,3-trifluoropropylsulfonyl)heptanamide]	≥ 90%		≥ 70%	
CCC(CCC(F)(C(=O)OC)S(=O)(=O)CCC(F)(F)F)C(F)(F)F (stereo not shown) [present compound (11), methyl 2-fluoro-5-(trifluoromethyl)-2-(3,3,3-trifluoropropylsulfonyl)heptanoate]	≥ 90%	100%	≥ 70%	
CCC(CCC(F)(C(N)=O)S(=O)(=O)CCC(F)(F)F)C(F)(F)F (stereo not shown) [present compound (12), 2-fluoro-5-(trifluoromethyl)-2-(3,3,3-trifluoropropylsulfonyl)heptanamide]	≥ 90%	100%	≥ 70%	
CCC(CCC(C)(C(N)=O)S(=O)(=O)CCC(F)(F)F)C(F)(F)F (stereo not shown) [present compound (13), 2-methyl-5-(trifluoromethyl)-2-(3,3,3-trifluoropropylsulfonyl)heptanamide]			≥ 70%	
COC(=O)C(Cl)(CCC(C(C)C)C(F)(F)F)S(=O)(=O)CCC(F)(F)F (stereo not shown) [present compound (19), methyl 2-chloro-6-methyl-5-(trifluoromethyl)-2-(3,3,3-trifluoropropylsulfonyl)heptanoate]	≥ 90%	100%	≥ 70%	
CC(C)C(CCC(Cl)(C(N)=O)S(=O)(=O)CCC(F)(F)F)C(F)(F)F (stereo not shown) [present compound (20), 2-chloro-6-methyl-5-(trifluoromethyl)-2-(3,3,3-trifluoropropylsulfonyl)heptanamide]	≥ 90%	100%	≥ 70%	
CCCC(CCC(Cl)(C(=O)OC)S(=O)(=O)CCC(F)(F)F)C(F)(F)F (stereo not shown) [present compound (22), methyl 2-chloro-5-(trifluoromethyl)-2-(3,3,3-trifluoropropylsulfonyl)octanoate]	≥ 90%			
CCCC(CCC(Cl)(C(N)=O)S(=O)(=O)CCC(F)(F)F)C(F)(F)F (stereo not shown) [present compound (23), 2-chloro-5-(trifluoromethyl)-2-(3,3,3-trifluoropropylsulfonyl)octanamide]	≥ 90%			
COC(=O)C(CCC(OC)C(F)(F)F)S(=O)(=O)CCC(F)(F)F (stereo not shown) [present compound (24), methyl 6,6,6-trifluoro-5-methoxy-2-(3,3,3-trifluoropropylsulfonyl)hexanoate]	≥ 90%	100%	≥ 70%	
COC(=O)C(Cl)(CCC(OC)C(F)(F)F)S(=O)(=O)CCC(F)(F)F (stereo not shown) [present compound (25), methyl 2-chloro-6,6,6-trifluoro-5-methoxy-2-(3,3,3-trifluoropropylsulfonyl)hexanoate]		100%	≥ 70%	
COC(CCC(Cl)(C(N)=O)S(=O)(=O)CCC(F)(F)F)C(F)(F)F (stereo not shown) [present compound (26), 2-chloro-6,6,6-trifluoro-5-methoxy-2-(3,3,3-trifluoropropylsulfonyl)hexanamide]	≥ 90%	100%	≥ 70%	
COC(=O)C(CCC(SC)C(F)(F)F)S(=O)(=O)CCC(F)(F)F (stereo not shown) [present compound (27), methyl 6,6,6-trifluoro-5-methylthio-2-(3,3,3-trifluoropropylsulfonyl)hexanoate]	≥ 90%			
COC(=O)C(Cl)(CCC(SC)C(F)(F)F)S(=O)(=O)CCC(F)(F)F (stereo not shown) [present compound (28), methyl 2-chloro-6,6,6-trifluoro-5-methylthio-2-(3,3,3-trifluoropropylsulfonyl)hexanoate]	≥ 90%		≥ 70%	
CSC(CCC(Cl)(C(N)=O)S(=O)(=O)CCC(F)(F)F)C(F)(F)F (stereo not shown) [present compound (29), 2-chloro-6,6,6-trifluoro-5-methylthio-2-(3,3,3-trifluoropropylsulfonyl)hexanamide]	≥ 90%	100%	≥ 70%	
CSC(CCC(C#N)S(=O)(=O)CCC(F)(F)F)C(F)(F)F (stereo not shown) [present compound (30), 6,6,6-trifluoro-5-methylthio-2-(3,3,3-trifluoropropylsulfonyl)hexanenitrile]	≥ 90%	100%	≥ 70%	
CC(CCC(Cl)(C(N)=O)S(=O)(=O)CCC(F)(F)F)C(F)(F)C(F)(F)F (stereo not shown) [present compound (31), 2-chloro-6,6,7,7,7-pentafluoro-5-methyl-2-(3,3,3-trifluoropropylsulfonyl)heptanamide]	≥ 90%	100%	≥ 70%	
